Laboratory results taken from US5625043A, “Anthracyclines with unusually high activity against cells resistant to doxorubicin and its analogs” (Priebe; Waldemar, priority 1995, dated 1997).
Values after ≈ are worked out from the molar mass of the structure shown. “Also recorded” adds a separate entry of the source. Like-named read-outs stand apart in the source and are kept apart here.

How the values were obtained:
[1] = test system: J7/40V cells; assay: Cytotoxicity against vinblastine-resistant J7/40V cells; format: cell-based, murine; details: for RI J7/40V: J7/40V versus J774.2; for IC50: Mus musculus; for cytotoxicity (in words): vinblastine-resistant
[2] = test system: J774.2 cells; assay: Cytotoxicity against J774.2 cells; format: cell-based, murine; details: for IC50: Mus musculus
[3] = test system: KB V1 cells; assay: MTT cytotoxicity assay, DOX-resistant (MDR) KB V1 cells; format: cell-based, human; details: for IC50: Homo sapiens; for RI (ID50 KB V1/ID50 KB 3-1): KB V1 versus KB 3-1; for cytotoxicity (in words): KB V1 (MDR, DOX-resistant)
Experimental: The assay was performed as follows:
Doxorubicin was obtained from the Hospital Pharmacy (Adriamycin, Adria Laboratories, Columbus, Ohio). KB 3-1 human carcinoma and KB V1 were obtained from Dr. Michael M. Gottesman at the National Cancer Institute. […] KB 3-1 and KB V1 cells were grown in monolayers in Dulbecco's modified Eagle's medium containing 10% fetal bovine serum. For KB V1 cells, vinblastine was added to the culture medium (final concentration 0.5 μg/ml).
The MTT dye was obtained from Sigma Chemical Company, St. Louis, Mo. Cells were plated in 96-well microassay culture plates (10^4 cells/well) and grown for 24 h at 37° C. in a 5% CO2 incubator. Drugs were then added to the wells to achieve a final drug concentration ranging from 0.1 to 50 μg/ml (eight wells were used for each different concentration). The same volume of 0.9% NaCl solution in water with 1% DMSO was added to control wells. Wells containing culture medium alone without cells were used as blanks. The plates were incubated at 37° C. in a 5% CO2 incubator for 1 h (KB cells). When incubation was complete, 15 μl of stock solution of MTT dye in 0.9% NaCl solution in water was added to each well to achieve a final dye concentration of 0.5 mg/ml. The plate was incubated at 37° C. in a 5% CO2 incubator for 4 h. […] Complete solubilization was achieved by placing the plate in a mechanical shaker for 30 minutes at room temperature. The optical density of each well was then measured with a microplate spectrophotometer at a wavelength of 600 nm. The percent cell viability was calculated by the following equation: [formula]
(§1) The percent cell viability values obtained were plotted against the drug concentrations used, and the ID50 was calculated from the curve. Experiments were repeated at least three time.

[4] = test system: J7/A300 cells; assay: Cytotoxicity against AD 198-resistant J7/A300 cells; format: cell-based, murine; details: for RI J7/A300: J7/A300 versus J774.2; for IC50: Mus musculus; for cytotoxicity (in words): J7/A300, AD 198-resistant
[5] = test system: KB 3-1 cells; assay: MTT cytotoxicity assay, DOX-sensitive KB 3-1 cells; format: cell-based; details: Homo sapiens
Experimental: An MTT assay was performed to determine the cytotoxicity of DOX, WP 546, and WP 549 to KB 3-1 (DOX-sensitive) and KB V1 (DOX-resistant) cells. The assay was performed as follows:
Doxorubicin was obtained from the Hospital Pharmacy (Adriamycin, Adria Laboratories, Columbus, Ohio). KB 3-1 human carcinoma and KB V1 were obtained from Dr. Michael M. Gottesman at the National Cancer Institute. KB V1 cells have the MDR phenotype and express glycoprotein P-170 in their membrane (Akiyama et al., Somat. Cell. Mol. Genet., 11:117, 1985; Shen et al., J. Biol. Chem., 261:7762, 1986.). KB 3-1 and KB V1 cells were grown in monolayers in Dulbecco's modified Eagle's medium containing 10% fetal bovine serum. For KB V1 cells, vinblastine was added to the culture medium (final concentration 0.5 μg/ml).
(§2) In vitro drug cytotoxicites against KB 3-1 and KB V1 cells were assessed by using the MTT reduction assay, as previously reported (Green et al., J. Immunol. Methods., 70:257, 1984). The MTT dye was obtained from Sigma Chemical Company, St. Louis, Mo. Cells were plated in 96-well microassay culture plates (10^4 cells/well) and grown for 24 h at 37° C. in a 5% CO2 incubator. Drugs were then added to the wells to achieve a final drug concentration ranging from 0.1 to 50 μg/ml (eight wells were used for each different concentration). The same volume of 0.9% NaCl solution in water with 1% DMSO was added to control wells. Wells containing culture medium alone without cells were used as blanks. The plates were incubated at 37° C. in a 5% CO2 incubator for 1 h (KB cells). When incubation was complete, 15 μl of stock solution of MTT dye in 0.9% NaCl solution in water was added to each well to achieve a final dye concentration of 0.5 mg/ml. […] The optical density of each well was then measured with a microplate spectrophotometer at a wavelength of 600 nm. The percent cell viability was calculated by the following equation: [formula]
(§3) The percent cell viability values obtained were plotted against the drug concentrations used, and the ID50 was calculated from the curve. […]

[6] = versus same dose by bolus injections; cited from earlier work
[7] = cited from earlier work
[8] = test system: P388 (R) cells; assay: MTT cytotoxicity assay, AD 198-resistant P388 (R) cells; format: cell-based, murine; details: for IC50: Mus musculus, P388 (R), ± S.E., read-out: ID50 (the source's name); for RI: P388 (R) versus P388 (S); for cytotoxicity (in words): P388 AD 198-resistant
Experimental: In vitro drug cytotoxicites against KB 3-1 and KB V1 cells were assessed by using the MTT reduction assay, as previously reported (Green et al., J. Immunol. Methods., 70:257, 1984). The MTT dye was obtained from Sigma Chemical Company, St. Louis, Mo. Cells were plated in 96-well microassay culture plates (10^4 cells/well) and grown for 24 h at 37° C. in a 5% CO2 incubator. Drugs were then added to the wells to achieve a final drug concentration ranging from 0.1 to 50 μg/ml (eight wells were used for each different concentration). The same volume of 0.9% NaCl solution in water with 1% DMSO was added to control wells. Wells containing culture medium alone without cells were used as blanks. The plates were incubated at 37° C. in a 5% CO2 incubator for 1 h (KB cells). When incubation was complete, 15 μl of stock solution of MTT dye in 0.9% NaCl solution in water was added to each well to achieve a final dye concentration of 0.5 mg/ml. The plate was incubated at 37° C. in a 5% CO2 incubator for 4 h. Subsequently, 100 μl of medium was removed from each well from the upper ]K<id,KD layer, and 100 μl of DMSO was added to solubilize the MTT formazan. Complete solubilization was achieved by placing the plate in a mechanical shaker for 30 minutes at room temperature. The optical density of each well was then measured with a microplate spectrophotometer at a wavelength of 600 nm. The percent cell viability was calculated by the following equation: [formula]
as §1
An MTT assay to determine the cytotoxicity of WP 546 and WP 549 to AD 198-resistant {P 388 (R)} and AD 198-sensitive {P388 (S)} cells was performed in a manner similar to that described above.

[9] = test system: P388 (S) cells; assay: MTT cytotoxicity assay, AD 198-sensitive P388 (S) cells; format: cell-based, murine; details: Mus musculus, ± S.E., read-out: ID50 (the source's name)
Experimental: as §2, with “mg/ml. The plate was incubated at 37° C. in a 5% CO2 incubator for 4 h.” for “mg/ml.”
as §3

[10] = test system: tumor cells resistant to doxorubicin, AD 198, and vinblastine; assay: Cytotoxicity against drug-resistant tumor cells (general statement); format: cell-based
[11] = J7/40V, read-out: ID50 (the source's name)
[12] = J774.2, read-out: ID50 (the source's name)
[13] = KB V1 (R), MTT, 1 h drug incubation, read-out: ID50 (the source's name)
[14] = J7/A300, read-out: ID50 (the source's name)
[15] = KB 3-1 (S), MTT, 1 h drug incubation, read-out: ID50 (the source's name)

SMILES | RI J7/40V [1] | RI (ID50 KB V1/ID50 KB 3-1) [3] | RI J7/A300 [4] | cytotoxicity (in words) ([1]; J7/40V) | IC50 [1, 11] [µM] | IC50 [8] [µM] | RI [8] | cytotoxicity (in words) [8] | cytotoxicity (in words) ([2]; J774.2) | IC50 [2, 12] [µM] | IC50 [3, 13] [µg/mL] | cytotoxicity (in words) [3] | IC50 [9] [µM] | cytotoxicity (in words) [10] | cytotoxicity (in words) [4] | IC50 [4, 14] [µM] | IC50 [5, 15] [µg/mL] | further results
COc1cccc2c1C(=O)c1c(O)c3c(c(O)c1C2=O)C[C@@](O)(C(=O)CO)C[C@@H]3O[C@H]1C[C@H](N)[C@H](O)[C@H](C)O1 [Doxorubicin, doxorubicin] | 31 | 58.2 | 24 |  |  |  |  |  |  |  |  |  |  |  |  |  |  | IC50 ([1]; read-out: ID50): 0.755 µM; IC50 ([2]; J774.2, read-out: ID50): 0.024 µM; IC50 ([3]; KB-V1, 1 h, read-out: ID50): 64 µg/mL (≈ 118 µM); IC50 ([4]; read-out: ID50): 0.586 µM; IC50 ([5]; KB 3-1, 1 h, read-out: ID50): 1.1 µg/mL (≈ 2.02 µM); efficacy of 96-hr continuous infusion [6]: as effective as; toxicity of 96-hr continuous infusion [6]: much less toxic; adverse systemic effects ([7]; in vivo): acute myelosuppression, cumulative cardiotoxicity, and gastrointestinal toxicity; cardiomyopathy ([7]; related to total dose): unusual cardiomyopathy, the occurrence of which is related to the total dose of the drug; it is often irreversible
COc1cccc2c1C(=O)c1c(O)c3c(c(O)c1C2=O)C[C@@](O)(C(=O)CO)C[C@@H]3O[C@H]1C[C@H](OCc2ccccc2)[C@H](O)[C@H](C)O1 [WP 546, 7-O-(3-O-benzyl-2,6-dideoxy-α-L-lyxo-hexopyranosyl)adriamycinone] | 2.2 | 0.9 | 2.2 | shown to have cytotoxic effects | 2.35 | 0.69 ± 0.23 | 0.8 | more cytotoxic towards cells selected for the resistance than that of a wild type; also recorded: demonstrated cytotoxicity | shown to kill KB V1 cells and J774.2 cells | 1.1 | 4.1 (≈ 6.46 µM) | unexpectedly more cytotoxic against MDR cells than against parent cells; also recorded: ability to kill DOX-resistant and vinblastine resistant cells; also recorded: shown to kill KB V1 cells | 0.92 ± 0.36 | surprisingly broad cytotoxicity; also recorded: unexpected cytotoxic activity; also recorded: very high cytotoxicity | demonstrated cytotoxicity | 2.43 | 4.6 (≈ 7.25 µM) | cytotoxicity (in words) ([10]; listed as 3'-O-benzyl-doxorubicin): surprisingly similar in DOX-sensitive and DOX-resistant cell lines
CCCCC(=O)OCC(=O)[C@]1(O)Cc2c(O)c3c(c(O)c2[C@@H](O[C@H]2C[C@H](OCc4ccccc4)[C@H](O)[C@H](C)O2)C1)C(=O)c1c(OC)cccc1C3=O [WP 549, 7-O-(3-O-benzyl-2,6-dideoxy-α-L-lyxo-hexopyranosyl)-14-O-valeroyl-adriamycinone] | 2.3 | 0.5 | 1.9 | shown to have cytotoxic effects | 3.15 | 0.73 ± 0.08 | 0.5 | more cytotoxic towards cells selected for the resistance than that of a wild type; also recorded: demonstrated cytotoxicity | shown to kill KB V1 cells and J774.2 cells | 1.43 | 4.7 (≈ 6.54 µM) | unexpectedly more cytotoxic against MDR cells than against parent cells; also recorded: ability to kill DOX-resistant and vinblastine resistant cells; also recorded: shown to kill KB V1 cells | 1.41 ± 0.23 | surprisingly broad cytotoxicity; also recorded: unexpected cytotoxic activity; also recorded: very high cytotoxicity | demonstrated cytotoxicity | 2.77 | 8.9 (≈ 12.4 µM) | 
COc1cccc2c1C(=O)c1c(O)c3c(c(O)c1C2=O)C[C@@](O)(C(C)=O)C[C@@H]3O[C@H]1C[C@H](N)[C@H](O)[C@H](C)O1 [daunorubicin] |  |  |  |  |  |  |  |  |  |  |  |  |  |  |  |  |  | cardiomyopathy ([7]; in vivo): unusual cardiomyopathy, the occurrence of which is related to the total dose of the drug; it is often irreversible
CC[C@]1(O)C[C@@H]2CN(CCc3c([nH]c4ccccc34)[C@@](C(=O)OC)(c3cc4c(cc3OC)N(C)[C@H]3[C@@](O)(C(=O)OC)[C@H](OC(C)=O)[C@]5(CC)C=CCN6CC[C@]43[C@@H]65)C2)C1 [vinblastine, reference compound] |  |  |  |  |  |  |  |  |  |  |  |  |  |  |  |  |  | resistance of cell line to the selecting drug ([1]; J7/40V selected for resistance to vinblastine): 120 -fold
